One assay has as its system S. aureus ATCC 25923. In words: Phototoxicity test c.2) (BlueV light source, emission maximum approx. 420 nm, CFU count). Format: cell-based, Staphylococcus aureus. The settings on record: for log reduction at 10 µM / log reduction at 50 µM: Staphylococcus aureus, ATCC25923, light or radiation study, 5 min; for log reduction at 10 µM: read-out: Effectiveness against S. aureus: Reduction in CFU in log10 at concentration of 10 μM; for log reduction at 50 µM: read-out: Effectiveness against S. aureus: Reduction in CFU in log10 at concentration of 50 μM. The method, then: A sample of the bacterial cell Staphylococcus. aureus (ATCC number: 25923) or Escherichia. coli (ATCC number: 25922) was removed from a cryo-freeze culture and cultured under aerobic conditions at 37° C. and 175 rpm overnight in an orbital shaker (MAXQ4000, Thermo Scientific, Dubuque, Iowa, USA). Growth was carried out in 20 mL Todd-Hewitt broth (Carl Roth, Karlsruhe, Germany) supplemented with 0.3% of yeast extract (AppliChem, Darmstadt, Germany). In a second experiment, the photosensitizers (PS) used were dissolved in Millipore water and adjusted to various concentrations. 25 μL of a bacterial suspension grown overnight ( 108/mL) was incubated with 25 μL of photosensitizer solution of the various concentrations at room temperature for 10 seconds in darkness in a 96-well plate. Next, the suspension was irradiated for 5-20 minutes. For the irradiation, the light source BlueV from […], Germany) was used, which emits light from 380 to 480 nm (emission maximum at approximately 420 nm). The applied energy density was 17.5 mW/cm^2. Each experiment was accompanied by three controls in order to exclude side effect of the irradiation/photosensitizer (PS) on the survival of the bacteria: (i) no PS, only light (=light control), (ii) no light, only PS (=dark control) and (iii) neither light nor PS (=reference control). […] All of the tests were carried out four times. […] All of the remaining PS were tested against S. aureus ATCC 25923 (FIGS. 24-33). FIGS. 21-33 show the logarithmic reduction after illumination with respect to the reference control. […] The irradiation period was 5 minutes (emission maximum at approximately 420 nm) for an applied intensity of 17.5 mW/cm^2, i.e. an applied light energy (dosage) of 5.3 J/cm^2. The average reference control (arithmetic mean with standard deviation) (no light, no PS) was 3.9×10^8/mL. The logarithmic reduction after illumination is shown with respect to the reference control.

The test system of the next assay is E. coli ATCC 25922. Description: Phototoxicity test c.1) (LED array 430-435 nm, CFU count by Miles and Misra). The conditions noted are these: light dose 33.8 J/cm^2, approx. 435 nm, 60 min at 9.4 mW/cm^2, vs reference control. Format: cell-based, Escherichia coli. Here is the method:
A sample of the bacterial cell Staphylococcus. aureus (ATCC number: 25923) or Escherichia. coli (ATCC number: 25922) was removed from a cryo-freeze culture and cultured under aerobic conditions at 37° C. and 175 rpm overnight in an orbital shaker (MAXQ4000, Thermo Scientific, Dubuque, Iowa, USA). Growth was carried out in 20 mL Todd-Hewitt broth (Carl Roth, Karlsruhe, Germany) supplemented with 0.3% of yeast extract (AppliChem, Darmstadt, Germany).
Subsequently, dilutions (0, 5, 10, […] and 20% v/v of the overnight culture) and their absorptions were measured at 600 nm in triplicate for 100 μL (Infinite 200 M Pro, Tecan, Mannedorf, Switzerland). A calibration graph (Microsoft Excel) was used to calculate the volume which was required to produce 20 mL of a culture with an absorption of 0.05 at 600 nm. The volume calculated for the overnight culture was topped up with Todd-Hewitt broth (composition as above) to 20 mL and incubated for two hours at 37° C. with constant movement (175 rpm, MAXQ4000). The cultures were then in the exponential growth phase; the absorption at 600 nm was between 0.3 and 0.45.
A 2-hour culture was divided into 1800 μL aliquots. After centrifuging at 20° C., 830 rcf, 5 min (5417R centrifuge, Eppendorf, Hamburg, Germany), the pellets were re-suspended in phosphate buffer (Dulbeccos' Modified Phosphate Saline, DPBS, Sigma-Aldrich) with either 10 or 50 μM of the corresponding photosensitizer, wherein the final volume was kept at 1800 μL.
The solutions obtained were immediately incubated on the orbital shaker (see above for parameters) for 5 or 25 minutes.
Three controls were run at the same time for each photosensitizer. The “light only” control contained DPBS without photosensitizer. The “photosensitizer only” (“PS only”) control was incubated like the PDI samples, but not irradiated and kept strictly in darkness. A further control (double negative, “Co−/−”), received neither light nor photosensitizer.
After the incubation, duplicates of the samples (500 μL each) were transferred into a 24-well microtitre plate (Cellstar, Greiner Bio-One, Frickenhausen, Germany). The “PS only” and “Co −/−” samples were placed in their own microtitre plate which was packed in aluminium foil so as to be lightproof.
The irradiation was carried out under constant shaking (MTS4, IKA, Staufen, Germany, 175 rpm) from below on a LED array with maximum homogeneity of the lighting surface. All of the controls were shaken in the same manner. The technical data for the light source are shown in Table 2; the total dose of light applied was 33.8 J/cm^2.
The determination of the colony forming units (CFU) was carried out in accordance with the method published by Miles and Misra (Miles, A A; Misra, S S, Irwin, J O (1938 Nov.). “The estimation of the bactericidal power of the blood” The Journal of hygiene 38 (6): 732-49). In this regard, serial dilutions (1:10) of the corresponding bacterial suspension were produced in DPBS. 5×10 μL of each bacterial dilution was then dripped onto Todd-Hewitt plates (with broth, additional 1.5% agar (Agar-Agar, Kobe I, Roth, Karlsruhe, Germany) and incubated at 37° C. for 24 h. Next, the number of surviving colony forming units was determined. All of the tests were carried out four times.
The photosensitizers were tested against the bacterial strain E. coli ATCC 25922. FIGS. 1-20 show the measured surviving colony forming units (CFU).
The average reference control (arithmetic mean with standard deviation) (no light, no PS) was 3.6×10^8/mL. The logarithmic reduction after illumination is shown with respect to the reference control. The respective upper value, indicated by a *, refers to an incubation period of 5 min and the respectively lower value, indicated by a #, refers to an incubation period of 25 min.

[1] abbreviates: 10 μM, irradiation 5 minutes, approx. 420 nm, 17.5 mW/cm^2, 5.3 J/cm^2, vs reference control.
Where [2] appears, read: 50 μM, irradiation 5 minutes, approx. 420 nm, 17.5 mW/cm^2, 5.3 J/cm^2, vs reference control.
Setting [3] is: irradiation 5 minutes, approx. 420 nm, 17.5 mW/cm^2, 5.3 J/cm^2, vs reference control.
The mark [4] stands for this setting: incubation period 5 min (upper value, *).
[5] abbreviates: incubation period 25 min (lower value).

Counter-ions that a name gives are not always drawn. Like-named read-outs stand apart in the source and are kept apart here. Marks after values point to notes of the source that are not given here.

With `COc1cc(/C=C/C(=O)C(C)C(=O)/C=C/c2ccc(OCCN)c(OC)c2)ccc1OCCN` [Curcumin 09a hydrochloride], in the assay on S. aureus ATCC 25923 (setting [1]), the log reduction at 10 µM was greater than 2. Besides, the log reduction at 50 µM in the assay on S. aureus ATCC 25923 (setting [2]) was greater than 5.

On to `COc1ccc(/C=C/C(=O)C(CCN)C(=O)/C=C/c2ccc(OC)c(OC)c2)cc1OC.Cl` [Curcumin 11a hydrochloride], for which, in the assay on S. aureus ATCC 25923 (setting [3]), the “Effectiveness against S. aureus: Reduction in CFU in log10 at concentration of 100 μM” value was greater than 2 log10 and the “Effectiveness against S. aureus: Reduction in CFU in log10 at concentration of 250 μM” value is greater than 5 log10. Moreover, the log reduction at 50 µM in the assay on S. aureus ATCC 25923 (setting [2]) is greater than 1.

On to `Cl.Cl.NCCOc1ccc2cc(/C=C/C(=O)CC(=O)/C=C/c3ccc4cc(OCCN)ccc4c3)ccc2c1` [Curcumin 12b hydrochloride], for which, in the assay on S. aureus ATCC 25923 (setting [3]), the “Effectiveness against S. aureus: Reduction in CFU in log10 at concentration of 100 μM” value is roughly 2 log10 and the “Effectiveness against S. aureus: Reduction in CFU in log10 at concentration of 250 μM” value is greater than 3 log10. In addition, in the assay with S. aureus ATCC 25923 (setting [2]), the log reduction at 50 µM was greater than 1.

For `COc1ccc(/C=C/C(=O)C(CCN)C(=O)/C=C/c2ccc(OC)c(OCCN)c2)cc1OCCN` [Curcumin 13a hydrochloride], in the assay on S. aureus ATCC 25923 (setting [1]), the log reduction at 10 µM is greater than 1. Moreover, the log reduction at 50 µM in the assay with S. aureus ATCC 25923 (setting [2]) was greater than 5.

For the compound `COc1cc(/C=C/C(=O)C(C)C(=O)/C=C/c2ccc(OCCN)c(OCCN)c2)ccc1OCCN` (stereo not shown) [Curcumin 13c hydrochloride], the log reduction at 10 µM in the assay with S. aureus ATCC 25923 (setting [1]) is greater than 1. Moreover, in the assay with S. aureus ATCC 25923 (setting [2]), the log reduction at 50 µM was greater than 5.

For `COc1cc(/C=C(\C)C(=O)CC(=O)/C(C)=C/c2ccc(OCCN)c(OC)c2)ccc1OCCN.Cl.Cl` [Curcumin 14a hydrochloride], in the assay with S. aureus ATCC 25923 (setting [3]), the “Effectiveness against S. aureus: Reduction in CFU in log10 at concentration of 100 μM” value is reported as greater than 2 log10 and the “Effectiveness against S. aureus: Reduction in CFU in log10 at concentration of 250 μM” value is recorded as greater than 3 log10. For the same compound, the log reduction at 50 µM in the assay on S. aureus ATCC 25923 (setting [2]) was greater than 1.

For the compound `COc1cc(/C=C/C(=O)CC(=O)/C=C/c2ccc(OCCC[P+](C)(C)C)c(OC)c2)ccc1OCCC[P+](C)(C)C` [Curcumin 15a hydrochloride, 3,3′-(4,4′-((1E,6E)-3,5-dioxohepta-1,6-diene-1,7-diyl)bis(2-methoxy-4,1-phenylene))bis(oxy)bis(trimethylpropan-1-phosphonium) chloride], the log reduction at 10 µM in the assay on S. aureus ATCC 25923 (setting [1]) was roughly 1. In addition, the log reduction at 50 µM with S. aureus ATCC 25923 (setting [2]) was greater than 5.

Consider `COc1cc(/C=C/C(=O)CC(=O)/C=C/c2ccc(OCCC[P+](c3ccccc3)(c3ccccc3)c3ccccc3)c(OC)c2)ccc1OCCC[P+](c1ccccc1)(c1ccccc1)c1ccccc1` [Curcumin 15b hydrochloride, 3,3′-(4,4′-((1E,6E)-3,5-dioxohepta-1,6-diene-1,7-diyl)bis(2-methoxy-4,1-phenylene))bis(oxy)bis(triphenylpropan-1-phosphonium) chloride], for which, in the assay on S. aureus ATCC 25923, the log reduction at 10 µM was greater than 4 and the log reduction at 50 µM was greater than 5.

“(1E,6E)1,7- bis(4-(2- aminoethoxy)-3- methoxy- phenyl)hepta-1,6- diene-3,5-dione hydrochloride BF2 complex [Curcumin 01a BF-complex]”: the “Effectiveness against S. aureus: Reduction in CFU in log10 at concentration of 10 μM” value in the assay with S. aureus ATCC 25923 (setting [1]) is recorded as greater than 5 log10. Also, the “Effectiveness against S. aureus: Reduction in CFU in log10 at concentration of 50 μM” value in the assay on S. aureus ATCC 25923 (setting [2]) is listed as greater than 5 log10.

As to “Bis[(1E,6E)-1,7- bis(4-(2- aminoethoxy)-3- methoxy- phenyl)hepta-1,6- diene-3,5-dione hydrochloride] boron complex [Roseo-curcumin 01a hydrochloride]”, in the assay on E. coli ATCC 25922 (setting [4]), the “Effectiveness against E. Coli: Reduction in CFU in log10 at concentration of 10 μM” value is given as >5* log10 and the “Effectiveness against E. Coli: Reduction in CFU in log10 at concentration of 50 μM” value was >7* log10. Further, in the assay on E. coli ATCC 25922 (setting [5]), the “Effectiveness against E. Coli: Reduction in CFU in log10 at concentration of 10 μM” value is recorded as greater than 5 log10 and the “Effectiveness against E. Coli: Reduction in CFU in log10 at concentration of 50 μM” value was greater than 6 log10.

The values are drawn from US11191855B2, “1,7-diaryl-1,6-heptadiene-3,5-dione derivatives, methods for the production and use thereof” (UNIVERSITÄTSKLINIKUM REGENSBURG, priority 2015, dated 2021).
